Results as given in BigSolDB 2.1.

Work on `O=C1CCCC(=O)O1` yielded a solubility (mole fraction) (in 1,2-dichloroethane, 278.15 K) of 0.448, a solubility (mole fraction) (in 1,2-dichloroethane, 283.15 K) of 0.555 and a solubility (mole fraction) (in 1,2-dichloroethane, 288.15 K) of 0.631. The solubility (mole fraction) (in 1,2-dichloroethane, 293.15 K) was 0.7, the solubility (mole fraction) (in 1,2-dichloroethane, 298.15 K) was 0.773 and the solubility (mole fraction) (in 1,2-dichloroethane, 303.15 K) was 0.807. The solubility (mole fraction) (in 1,2-dichloroethane, 308.15 K) was 0.866, the solubility (mole fraction) (in 1,2-dichloroethane, 313.15 K) was 0.922 and the solubility (mole fraction) (in DMAc, 278.15 K) was 0.73. It also gave a solubility (mole fraction) (in DMAc, 283.15 K) of 0.789, a solubility (mole fraction) (in DMAc, 288.15 K) of 0.83 and a solubility (mole fraction) (in DMAc, 293.15 K) of 0.852. The solubility (mole fraction) (in DMAc, 298.15 K) was 0.877, the solubility (mole fraction) (in DMAc, 303.15 K) was 0.905 and the solubility (mole fraction) (in DMAc, 308.15 K) was 0.923. It also gave a solubility (mole fraction) (in DMAc, 313.15 K) of 0.935, a solubility (mole fraction) (in DMF, 278.15 K) of 0.549 and a solubility (mole fraction) (in DMF, 283.15 K) of 0.594. It also gave a solubility (mole fraction) (in DMF, 288.15 K) of 0.663, a solubility (mole fraction) (in DMF, 293.15 K) of 0.705 and a solubility (mole fraction) (in DMF, 298.15 K) of 0.74. The solubility (mole fraction) (in DMF, 303.15 K) was 0.795, the solubility (mole fraction) (in DMF, 308.15 K) was 0.822 and the solubility (mole fraction) (in DMF, 313.15 K) was 0.87. It also gave a solubility (mole fraction) (in acetone, 278.15 K) of 0.444, a solubility (mole fraction) (in acetone, 283.15 K) of 0.524 and a solubility (mole fraction) (in acetone, 288.15 K) of 0.623. The solubility (mole fraction) (in acetone, 293.15 K) was 0.676, the solubility (mole fraction) (in acetone, 298.15 K) was 0.76 and the solubility (mole fraction) (in acetone, 303.15 K) was 0.815. It also gave a solubility (mole fraction) (in acetone, 308.15 K) of 0.884, a solubility (mole fraction) (in acetone, 313.15 K) of 0.918 and a solubility (mole fraction) (in acetonitrile, 278.15 K) of 0.591. The solubility (mole fraction) (in acetonitrile, 283.15 K) was 0.648, the solubility (mole fraction) (in acetonitrile, 288.15 K) was 0.705 and the solubility (mole fraction) (in acetonitrile, 293.15 K) was 0.764. The solubility (mole fraction) (in acetonitrile, 298.15 K) was 0.809, the solubility (mole fraction) (in acetonitrile, 303.15 K) was 0.844 and the solubility (mole fraction) (in acetonitrile, 308.15 K) was 0.879. The solubility (mole fraction) (in acetonitrile, 313.15 K) was 0.918, the solubility (mole fraction) (in dichloromethane, 278.15 K) was 0.425 and the solubility (mole fraction) (in dichloromethane, 283.15 K) was 0.51. It also gave a solubility (mole fraction) (in dichloromethane, 288.15 K) of 0.597, a solubility (mole fraction) (in dichloromethane, 293.15 K) of 0.641 and a solubility (mole fraction) (in dichloromethane, 298.15 K) of 0.709. For the same compound, the solubility (mole fraction) (in dichloromethane, 303.15 K) was 0.78, the solubility (mole fraction) (in dichloromethane, 308.15 K) was 0.824 and the solubility (mole fraction) (in dichloromethane, 313.15 K) was 0.896. For the same compound, the solubility (mole fraction) (in ethyl acetate, 278.15 K) was 0.107, the solubility (mole fraction) (in ethyl acetate, 283.15 K) was 0.156 and the solubility (mole fraction) (in ethyl acetate, 288.15 K) was 0.206. The solubility (mole fraction) (in ethyl acetate, 293.15 K) was 0.273, the solubility (mole fraction) (in ethyl acetate, 298.15 K) was 0.383 and the solubility (mole fraction) (in ethyl acetate, 303.15 K) was 0.506. It also gave a solubility (mole fraction) (in ethyl acetate, 308.15 K) of 0.618, a solubility (mole fraction) (in ethyl acetate, 313.15 K) of 0.75 and a solubility (mole fraction) (in methyl acetate, 278.15 K) of 0.294. The solubility (mole fraction) (in methyl acetate, 283.15 K) was 0.384, the solubility (mole fraction) (in methyl acetate, 288.15 K) was 0.444 and the solubility (mole fraction) (in methyl acetate, 293.15 K) was 0.551. It also gave a solubility (mole fraction) (in methyl acetate, 298.15 K) of 0.646, a solubility (mole fraction) (in methyl acetate, 303.15 K) of 0.7 and a solubility (mole fraction) (in methyl acetate, 308.15 K) of 0.808. The solubility (mole fraction) (in methyl acetate, 313.15 K) was 0.874, the solubility (mole fraction) (in n-butyl acetate, 278.15 K) was 0.12 and the solubility (mole fraction) (in n-butyl acetate, 283.15 K) was 0.145. It also gave a solubility (mole fraction) (in n-butyl acetate, 288.15 K) of 0.181, a solubility (mole fraction) (in n-butyl acetate, 293.15 K) of 0.246 and a solubility (mole fraction) (in n-butyl acetate, 298.15 K) of 0.322. The solubility (mole fraction) (in n-butyl acetate, 303.15 K) was 0.451, the solubility (mole fraction) (in n-butyl acetate, 308.15 K) was 0.582 and the solubility (mole fraction) (in n-butyl acetate, 313.15 K) was 0.736. For the same compound, the solubility (mole fraction) (in n-propyl acetate, 278.15 K) was 0.234, the solubility (mole fraction) (in n-propyl acetate, 283.15 K) was 0.301 and the solubility (mole fraction) (in n-propyl acetate, 288.15 K) was 0.407. It also gave a solubility (mole fraction) (in n-propyl acetate, 293.15 K) of 0.505, a solubility (mole fraction) (in n-propyl acetate, 298.15 K) of 0.592 and a solubility (mole fraction) (in n-propyl acetate, 303.15 K) of 0.712. The solubility (mole fraction) (in n-propyl acetate, 308.15 K) was 0.817 and the solubility (mole fraction) (in n-propyl acetate, 313.15 K) was 0.908.
